According to patent publication US20100196465A1, “STABLE PHARMACEUTICAL COMPOSITION OF A WATER-SOLUBLE VINORELBINE SALT” (Pierre Fabre Medicament, priority 2007, published 2010):

Experiment: Stability test at 5° C. in a sealed package after 6 and 12 months (impurity content)
Type: physicochemical
Settings: external 20% humidity, % of the total weight of the composition
Method: The compositions as gelatin capsules are housed in a sealed package (T0) and stored at 5° C. with an external 20% humidity rate. Next, the impurity content (in % of the total weight of the composition) is dosed after 6 and 12 months (T6 and T12 respectively) and compared to that dosed beforehand at T0. The difference between the percentages at T6 and T0 and then T12 and T0 indicate the change in the impurity content.
It is compared with that obtained for freeze-dried vinorelbine ditartrate stored under the same conditions.
This operating procedure was applied in the following Examples 2 to 5.

CCC1=C[C@@H]2CN(C1)Cc1c([nH]c3ccccc13)[C@@](C(=O)OC)(c1cc3c(cc1OC)N(C)[C@H]1[C@@](O)(C(=O)OC)[C@H](OC(C)=O)[C@]4(CC)C=CCN5CC[C@]31[C@@H]54)C2 [Vinorelbine ditartrate, vinorelbine ditartrate]
Change in impurity content T0 to T12: T0 to T12: +0.79%
